Key:
Experiment in all cases: relative viability (nuclei count vs DMSO), 5 days (fraction); higher = more cells survive
IDH-C35 + AZD7762 = compound: Cc1ccccc1C(C(=O)NC1CCCCC1)N(C(=O)Cn1ccnc1C)c1cccc(F)c1 [IDH-C35] + NC(=O)Nc1cc(-c2cccc(F)c2)sc1C(=O)N[C@H]1CCCNC1 [AZD7762] (partner 0.2 µM)
Outline: (§1)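 Lung cancer cell lines were pin-tool dosed in 1536-well plates on the day after seeding, with either a lone drug or a fixed anchor-drug dose plus five library-drug doses (not always all listed) in √10 steps. Nuclei were counted on 4× images after 5 days. Relative viability is the ratio of treated-well to vehicle-well nuclei counts, with each value a median of duplicate plates.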

IDH-C35 + Phenformin = compound: Cc1ccccc1C(C(=O)NC1CCCCC1)N(C(=O)Cn1ccnc1C)c1cccc(F)c1 [IDH-C35] + N=C(N)NC(=N)NCCc1ccccc1 [Phenformin] (partner 250 µM)
Outline: as §1

[1] = compound: CC1=C(C(=NN1)C)CC2=C(C3=C(S2)N(C(=O)N(C3=O)C)CC(C)C)C(=O)N4C[C@@H](CO4)O + O=C(CCCCCCC(=O)Nc1ccccc1)NO [Vorinostat] (partner 1 µM)
Outline: as §1

[2] = compound: CC1=C(C(=NN1)C)CC2=C(C3=C(S2)N(C(=O)N(C3=O)C)CC(C)C)C(=O)N4C[C@@H](CO4)O + CC(C)C[C@H](NC(=O)[C@H](Cc1ccccc1)NC(=O)c1cnccn1)B(O)O [Bortezomib] (partner 0.002 µM)
Outline: as §1

Row | Cell Line | relative viability (IDH-C35 + AZD7762; first compound 0.08 µM) | relative viability (IDH-C35 + AZD7762; first compound 0.253 µM) | relative viability (IDH-C35 + AZD7762; first compound 0.8 µM) | relative viability (IDH-C35 + AZD7762; first compound 2.53 µM) | relative viability (IDH-C35 + AZD7762; first compound 8 µM) | relative viability (IDH-C35 + Phenformin; first compound 0.08 µM) | relative viability (IDH-C35 + Phenformin; first compound 0.253 µM) | relative viability (IDH-C35 + Phenformin; first compound 0.8 µM) | relative viability (IDH-C35 + Phenformin; first compound 2.53 µM) | relative viability (IDH-C35 + Phenformin; first compound 8 µM) | relative viability ([1]; first compound 0.0025 µM) | relative viability ([1]; first compound 0.007906 µM) | relative viability ([1]; first compound 0.025 µM) | relative viability ([1]; first compound 0.07906 µM) | relative viability ([1]; first compound 0.25 µM) | relative viability ([2]; first compound 0.0025 µM) | relative viability ([2]; first compound 0.007906 µM) | relative viability ([2]; first compound 0.025 µM) | relative viability ([2]; first compound 0.07906 µM) | relative viability ([2]; first compound 0.25 µM)
1 | HCC-78 | 0.584 | 0.66 | 0.615 | 0.738 | 0.732 | 0.608 | 0.682 | 0.644 | 0.798 | 0.745 | 0.521 | 0.552 | 0.497 | 0.518 | 0.439 | 0.526 | 0.614 | 0.535 | 0.543 | 0.413
2 | HCC-15 | 1.33 | 1.1 | 1.08 | – | 1.35 | 0.521 | 0.464 | 0.501 | – | 0.45 | 1.04 | 0.829 | 0.839 | 0.875 | 0.81 | 1 | 0.945 | 0.979 | 1.02 | 1.2
3 | EKVX | 0.75 | 0.819 | 0.725 | 0.803 | 0.756 | 0.245 | 0.219 | 0.227 | 0.229 | 0.189 | 0.863 | 0.756 | 0.806 | 0.604 | 0.416 | 1.02 | 1.33 | 1.07 | 0.992 | 1.03
4 | NCI-H2087 | 1.39 | 1.32 | 1.16 | 1.23 | 1.36 | 0.482 | 0.433 | 0.398 | – | 0.432 | 0.841 | 0.581 | 0.578 | 0.462 | 0.875 | 0.996 | 0.716 | 0.705 | 0.909 | 1.05
5 | NCI-H1437 | 1.09 | 1.12 | 1.17 | 1.06 | 1.08 | 0.334 | 0.288 | 0.336 | 0.322 | 0.274 | 0.796 | 0.882 | 0.833 | 0.868 | 0.906 | 0.669 | 0.568 | 0.516 | 0.441 | 0.601
6 | ABC-1 | 0.779 | 0.874 | 0.739 | 0.744 | 1.01 | 0.261 | 0.218 | 0.247 | 0.235 | 0.23 | 1.08 | 1.27 | – | 0.904 | 0.864 | 0.342 | 0.304 | 0.304 | 0.394 | 0.335
7 | NCI-H838 | 1.09 | 0.922 | 0.918 | 0.953 | 0.925 | 0.729 | 0.599 | 0.502 | 0.659 | 0.543 | 0.696 | 0.75 | 0.691 | 0.777 | 0.704 | 0.88 | 1.13 | 0.786 | 0.738 | 0.929
8 | A-427 | 0.709 | 0.725 | 0.687 | 0.679 | 0.707 | 0.359 | 0.3 | 0.338 | 0.314 | 0.312 | 0.899 | 0.895 | 0.865 | 0.826 | 0.929 | 0.945 | 1 | 1.03 | 0.975 | 0.944
9 | LCLC-97TM1 | 0.265 | 0.384 | 0.143 | – | 0.192 | 0.388 | 0.453 | 0.465 | 0.407 | 0.346 | 0.984 | 1.03 | 0.575 | 0.72 | 0.776 | 0.657 | 0.484 | 0.347 | 0.637 | 0.949
10 | LCLC-103H | 0.831 | 0.792 | 0.81 | 0.779 | 0.829 | 0.308 | 0.338 | 0.344 | 0.364 | 0.34 | 0.871 | 0.896 | 0.792 | 0.772 | 0.689 | 1.11 | 1.08 | 1.15 | 1.04 | 1.05
11 | PC-3 [JPC-3] | 0.75 | 0.867 | 0.86 | 0.844 | 0.78 | 0.471 | 0.447 | 0.521 | 0.509 | 0.453 | 0.853 | 0.898 | 0.741 | 0.972 | 0.797 | 0.949 | 0.869 | 0.886 | 0.79 | 0.786
12 | BEN | 0.572 | 0.772 | 0.679 | 0.586 | 0.683 | 0.292 | 0.246 | 0.257 | 0.279 | 0.282 | 0.553 | 0.493 | 0.593 | 0.527 | 0.536 | 0.772 | 0.74 | 0.532 | 0.675 | 0.665
13 | NCI-H1666 | 0.934 | 1.03 | 0.795 | 0.712 | 0.94 | 0.573 | 0.578 | 0.594 | 0.538 | 0.54 | 1.08 | 1.12 | 1.03 | 1.04 | 1.05 | 0.933 | 0.874 | 0.821 | 0.778 | 0.81
14 | LC-2-ad | 0.878 | 0.846 | 0.793 | 0.837 | 0.804 | 0.571 | 0.585 | 0.603 | – | 0.604 | 0.696 | 0.658 | 0.718 | 0.705 | 0.729 | 1.06 | 1.05 | 1.15 | 0.999 | 1.14
15 | ChaGo-K-1 | 0.97 | 0.928 | 0.899 | 0.819 | 0.818 | 0.482 | 0.473 | 0.511 | 0.465 | 0.531 | 0.73 | 0.811 | 0.755 | 0.725 | 0.787 | 0.906 | 0.859 | – | 1.11 | 1.35
16 | NCI-H1975 | 0.755 | 0.75 | 0.766 | 0.818 | 0.793 | 0.411 | 0.406 | 0.401 | 0.425 | 0.401 | 0.754 | 0.743 | 0.729 | 0.747 | 0.786 | 0.423 | 0.338 | 0.42 | 0.409 | 0.342
